Test results reported in ChEMBL document CHEMBL1201862, “PubChem BioAssay data set” (2004).
Activity calls are given as the source filed them.

Legend:
[1] = target: Glycogen synthase kinase-3 beta (Homo sapiens, UniProt P49841); assay: inhibition of human GSK3B activity – biochemical, microfluidics, dry powder samples, set 2, dose response (AID 623989); format: functional
[2] = target: Glycogen synthase kinase-3 alpha (Homo sapiens, UniProt P49840); assay: GSK3A enzyme blockers, homolog specificity check – biochemical, microfluidics, dry powder samples, set 2, selectivity assay for GSK3beta inhibitor project, dose response (AID 623978); format: functional
Chain of Glycogen synthase kinase-3 alpha (P49840 whole entry): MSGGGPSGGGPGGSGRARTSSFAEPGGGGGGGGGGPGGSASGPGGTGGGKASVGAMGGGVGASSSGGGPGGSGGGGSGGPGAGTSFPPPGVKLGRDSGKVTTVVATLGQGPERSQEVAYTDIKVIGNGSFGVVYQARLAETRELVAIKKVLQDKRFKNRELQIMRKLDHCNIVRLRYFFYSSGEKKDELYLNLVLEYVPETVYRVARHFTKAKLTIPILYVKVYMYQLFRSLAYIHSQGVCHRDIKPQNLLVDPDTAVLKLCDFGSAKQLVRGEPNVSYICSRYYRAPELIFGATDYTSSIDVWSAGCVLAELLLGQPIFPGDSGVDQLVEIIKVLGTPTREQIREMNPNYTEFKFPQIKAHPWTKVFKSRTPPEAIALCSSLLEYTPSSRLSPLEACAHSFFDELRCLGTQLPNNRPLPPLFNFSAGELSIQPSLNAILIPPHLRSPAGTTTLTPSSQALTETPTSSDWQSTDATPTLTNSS

[3] = target: T1, Ubiquitin-conjugating enzyme E2 N (Homo sapiens, UniProt P61088); format: functional
T1 sequence (P61088 whole entry): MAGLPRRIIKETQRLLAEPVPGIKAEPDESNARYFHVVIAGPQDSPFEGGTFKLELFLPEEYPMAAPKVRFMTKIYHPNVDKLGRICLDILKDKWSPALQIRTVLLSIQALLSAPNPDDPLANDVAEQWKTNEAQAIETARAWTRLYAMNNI

[4] = target: E3 ubiquitin-protein ligase XIAP (Homo sapiens, UniProt P98170); assay: Counter Screen using XIAP-Bir3 for Chemical Antagonists of Bir1/2 domains of IAP-family anti-apoptotic proteins. [Related pubchem assays (depositor defined):AID1018, AID1449, AID1514, AID1638, AID1749, AID1750, AID488957, AID488963]
Chain of E3 ubiquitin-protein ligase XIAP (P98170 whole entry): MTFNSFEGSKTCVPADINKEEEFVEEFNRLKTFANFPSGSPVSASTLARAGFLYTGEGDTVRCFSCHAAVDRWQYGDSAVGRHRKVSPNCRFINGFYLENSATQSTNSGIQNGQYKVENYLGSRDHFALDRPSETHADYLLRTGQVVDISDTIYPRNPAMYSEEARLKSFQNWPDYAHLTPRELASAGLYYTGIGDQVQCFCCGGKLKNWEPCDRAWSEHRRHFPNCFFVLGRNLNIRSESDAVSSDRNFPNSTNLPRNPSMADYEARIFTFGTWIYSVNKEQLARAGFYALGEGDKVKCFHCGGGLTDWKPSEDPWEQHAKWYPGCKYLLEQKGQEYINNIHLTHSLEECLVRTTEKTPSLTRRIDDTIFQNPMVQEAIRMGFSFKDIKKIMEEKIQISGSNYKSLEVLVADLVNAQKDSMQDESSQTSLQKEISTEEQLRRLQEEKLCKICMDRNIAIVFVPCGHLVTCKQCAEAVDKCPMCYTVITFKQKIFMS

Prothrombin = Prothrombin (Bos taurus, UniProt P00735); assay: thrombin protease inhibitors – biochemical, fluorescence polarization, uHTS hits, dose response (AID 602369); format: functional
[5] = target: T1, Ubiquitin-conjugating enzyme E2 N; format: functional; remark: listed apart in the source
[6] = target: 26S proteasome non-ATPase regulatory subunit 14 (Homo sapiens, UniProt O00487); assay: inhibition of proteasome subunit RPN11 – biochemical, fluorescence polarization, uHTS hits, confirmation (AID 602368); format: functional
Chain of 26S proteasome non-ATPase regulatory subunit 14 (O00487 whole entry): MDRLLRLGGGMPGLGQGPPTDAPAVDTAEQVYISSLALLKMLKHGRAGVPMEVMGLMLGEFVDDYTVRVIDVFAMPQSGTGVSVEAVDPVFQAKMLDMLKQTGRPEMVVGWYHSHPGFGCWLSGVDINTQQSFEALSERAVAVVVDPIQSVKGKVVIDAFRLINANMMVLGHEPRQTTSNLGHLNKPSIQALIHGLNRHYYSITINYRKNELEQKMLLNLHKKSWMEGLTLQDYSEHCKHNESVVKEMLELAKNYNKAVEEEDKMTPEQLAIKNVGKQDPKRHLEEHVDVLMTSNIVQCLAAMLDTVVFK

SUMO-activating enzyme [7] = target: T2, SUMO-activating enzyme (Homo sapiens, UniProt Q9UBT2); assay: blockers of UBC9-mediated SUMO conjugation – biochemical, AlphaScreen, SUMOylation inhibitor project, confirmation (AID 2018); format: functional
T2 sequence (Q9UBE0 whole entry): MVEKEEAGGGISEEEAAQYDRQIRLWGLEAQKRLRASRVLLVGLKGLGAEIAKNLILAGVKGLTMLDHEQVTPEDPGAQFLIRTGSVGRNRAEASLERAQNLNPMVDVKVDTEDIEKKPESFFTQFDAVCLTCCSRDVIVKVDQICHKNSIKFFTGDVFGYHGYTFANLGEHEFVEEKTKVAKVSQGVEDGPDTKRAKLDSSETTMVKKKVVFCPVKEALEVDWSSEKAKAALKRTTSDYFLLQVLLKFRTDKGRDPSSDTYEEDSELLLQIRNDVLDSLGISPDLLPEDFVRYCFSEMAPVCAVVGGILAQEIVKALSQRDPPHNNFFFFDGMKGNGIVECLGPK
T2 sequence (Q9UBT2 whole entry): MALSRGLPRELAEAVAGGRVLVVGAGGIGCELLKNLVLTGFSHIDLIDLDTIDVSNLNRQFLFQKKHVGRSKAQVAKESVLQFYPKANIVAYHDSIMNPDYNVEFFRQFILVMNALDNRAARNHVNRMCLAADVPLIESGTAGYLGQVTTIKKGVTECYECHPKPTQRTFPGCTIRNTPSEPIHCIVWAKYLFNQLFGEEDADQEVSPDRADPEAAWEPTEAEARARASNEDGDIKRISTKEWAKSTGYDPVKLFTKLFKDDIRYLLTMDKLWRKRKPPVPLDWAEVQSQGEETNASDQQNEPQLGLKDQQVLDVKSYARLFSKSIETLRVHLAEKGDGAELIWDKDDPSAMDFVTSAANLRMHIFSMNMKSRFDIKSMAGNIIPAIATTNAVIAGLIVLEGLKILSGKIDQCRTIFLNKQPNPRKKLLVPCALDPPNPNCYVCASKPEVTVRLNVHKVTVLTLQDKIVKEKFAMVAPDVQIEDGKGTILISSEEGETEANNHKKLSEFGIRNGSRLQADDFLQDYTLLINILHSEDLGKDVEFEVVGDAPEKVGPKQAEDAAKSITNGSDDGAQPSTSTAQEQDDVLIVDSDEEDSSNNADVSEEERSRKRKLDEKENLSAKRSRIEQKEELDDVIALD

[8] = viability loss in HeLa cells – cytotoxicity control for MgcRacGAP inhibitor project, dose response (AID 624300); format: functional
SUMO-activating enzyme [9] = target: T2, SUMO-activating enzyme; assay: blockers of SAE1/SAE2–UBC9 SUMO transfer – biochemical, HTRF, uHTS, primary screen (AID 2006); format: protein-complex assay
Bcl-2-related protein A1 = target: T3, Bcl-2-related protein A1 (Mus musculus, UniProt Q07440); format: functional;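 note: confirmatory dose–response counterscreen on Bfl-1, used to check hits from a UBC13 polyubiquitin inhibitor campaign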
T3 sequence (Q07440 whole entry): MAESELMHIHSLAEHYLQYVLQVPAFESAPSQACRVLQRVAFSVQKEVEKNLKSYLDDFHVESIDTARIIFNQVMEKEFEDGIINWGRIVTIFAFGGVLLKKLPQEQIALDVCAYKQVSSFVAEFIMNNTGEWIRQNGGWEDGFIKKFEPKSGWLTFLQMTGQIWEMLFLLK

[10] = target: 72 kDa type IV collagenase (Homo sapiens, UniProt P08253); assay: Dose Response validation of uHTS RPN11 inhibitor hits using a MMP-2 Fluorescence assay.; format: functional
Chain of 72 kDa type IV collagenase (P08253 whole entry): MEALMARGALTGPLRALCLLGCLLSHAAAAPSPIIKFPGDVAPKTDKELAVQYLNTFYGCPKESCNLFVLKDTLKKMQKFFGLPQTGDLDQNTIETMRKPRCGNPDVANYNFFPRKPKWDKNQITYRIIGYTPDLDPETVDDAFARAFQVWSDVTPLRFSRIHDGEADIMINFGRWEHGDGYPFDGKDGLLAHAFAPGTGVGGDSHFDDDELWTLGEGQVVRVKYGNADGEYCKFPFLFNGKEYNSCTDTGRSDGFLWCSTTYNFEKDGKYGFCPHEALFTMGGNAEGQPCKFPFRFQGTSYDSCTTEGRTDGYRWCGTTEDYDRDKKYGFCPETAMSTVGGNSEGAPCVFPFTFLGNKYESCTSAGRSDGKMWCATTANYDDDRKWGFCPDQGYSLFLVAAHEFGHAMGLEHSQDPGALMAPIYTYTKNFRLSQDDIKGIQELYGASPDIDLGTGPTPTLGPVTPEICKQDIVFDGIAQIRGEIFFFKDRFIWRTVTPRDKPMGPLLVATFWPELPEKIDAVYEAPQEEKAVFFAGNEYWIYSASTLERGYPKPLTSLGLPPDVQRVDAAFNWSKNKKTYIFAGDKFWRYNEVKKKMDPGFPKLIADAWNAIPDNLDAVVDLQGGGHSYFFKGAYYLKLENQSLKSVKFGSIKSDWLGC

[11] = target: T4, Rac GTPase-activating protein 1 (Homo sapiens, UniProt Q9H0H5); assay: blockers of MgcRacGAP-driven Rac1 GTP hydrolysis – biochemical, ADP Hunter fluorescence, primary and confirmatory, confirmation (AID 624330); format: functional
T4 sequence (Q9H0H5 whole entry): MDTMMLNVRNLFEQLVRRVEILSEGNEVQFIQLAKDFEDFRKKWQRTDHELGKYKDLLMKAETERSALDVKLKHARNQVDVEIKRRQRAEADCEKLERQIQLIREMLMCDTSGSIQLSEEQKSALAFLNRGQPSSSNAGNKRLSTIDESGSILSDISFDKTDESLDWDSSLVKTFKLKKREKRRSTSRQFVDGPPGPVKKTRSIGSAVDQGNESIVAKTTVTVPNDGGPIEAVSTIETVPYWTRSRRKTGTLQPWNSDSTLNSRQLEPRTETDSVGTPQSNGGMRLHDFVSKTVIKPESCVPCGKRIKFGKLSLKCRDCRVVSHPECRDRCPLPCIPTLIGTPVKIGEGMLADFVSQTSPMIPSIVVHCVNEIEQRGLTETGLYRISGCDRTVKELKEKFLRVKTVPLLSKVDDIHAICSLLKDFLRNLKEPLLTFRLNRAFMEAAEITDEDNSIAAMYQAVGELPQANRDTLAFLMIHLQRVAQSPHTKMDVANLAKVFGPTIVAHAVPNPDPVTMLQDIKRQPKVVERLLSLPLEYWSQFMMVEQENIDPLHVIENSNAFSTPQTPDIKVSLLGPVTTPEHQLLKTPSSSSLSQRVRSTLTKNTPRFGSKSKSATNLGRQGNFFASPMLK

[12] = target: T5, Apoptotic protease-activating factor 1 (Homo sapiens, UniProt O14727); assay: SAR analysis of small molecule inhibitors of Apaf-1 in a Fluorescent assay.; format: functional; conditions: read-out: IC50_Mean
T5 sequence (O14727 whole entry): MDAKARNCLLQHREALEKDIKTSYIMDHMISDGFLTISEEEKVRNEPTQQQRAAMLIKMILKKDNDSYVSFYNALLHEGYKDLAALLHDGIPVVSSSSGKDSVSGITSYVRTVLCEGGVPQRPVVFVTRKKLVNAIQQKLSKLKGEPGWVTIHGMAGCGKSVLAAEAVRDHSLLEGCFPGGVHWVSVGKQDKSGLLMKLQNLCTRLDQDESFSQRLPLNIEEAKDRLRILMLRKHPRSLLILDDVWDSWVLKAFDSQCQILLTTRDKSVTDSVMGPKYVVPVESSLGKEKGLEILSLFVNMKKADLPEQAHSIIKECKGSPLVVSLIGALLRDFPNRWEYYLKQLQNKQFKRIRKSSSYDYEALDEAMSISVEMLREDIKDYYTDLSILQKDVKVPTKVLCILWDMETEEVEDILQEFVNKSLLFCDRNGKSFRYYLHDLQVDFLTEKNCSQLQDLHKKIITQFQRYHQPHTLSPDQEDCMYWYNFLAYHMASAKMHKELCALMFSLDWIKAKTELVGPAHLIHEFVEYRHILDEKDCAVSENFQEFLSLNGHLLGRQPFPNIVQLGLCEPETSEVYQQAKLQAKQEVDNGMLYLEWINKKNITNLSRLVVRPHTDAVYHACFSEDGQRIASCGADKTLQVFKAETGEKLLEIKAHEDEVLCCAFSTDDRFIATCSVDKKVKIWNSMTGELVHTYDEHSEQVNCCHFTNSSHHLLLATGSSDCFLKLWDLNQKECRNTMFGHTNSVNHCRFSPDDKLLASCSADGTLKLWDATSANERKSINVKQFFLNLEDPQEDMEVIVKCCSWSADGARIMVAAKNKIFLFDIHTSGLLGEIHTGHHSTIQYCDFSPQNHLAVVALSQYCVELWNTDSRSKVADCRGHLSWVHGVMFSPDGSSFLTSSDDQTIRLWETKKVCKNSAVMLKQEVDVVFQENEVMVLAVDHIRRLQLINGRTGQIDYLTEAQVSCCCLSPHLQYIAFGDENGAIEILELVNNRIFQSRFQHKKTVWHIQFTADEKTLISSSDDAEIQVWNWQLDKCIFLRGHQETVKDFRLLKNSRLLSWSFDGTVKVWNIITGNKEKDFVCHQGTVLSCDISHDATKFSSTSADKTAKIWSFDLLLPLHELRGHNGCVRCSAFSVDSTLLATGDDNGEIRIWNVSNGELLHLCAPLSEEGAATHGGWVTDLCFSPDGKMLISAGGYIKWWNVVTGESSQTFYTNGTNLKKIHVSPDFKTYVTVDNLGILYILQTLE

[13] = target: T6, DNA repair protein RAD52 homolog (Homo sapiens, UniProt P43351); format: functional, biochemical
T6 sequence (P43351 whole entry): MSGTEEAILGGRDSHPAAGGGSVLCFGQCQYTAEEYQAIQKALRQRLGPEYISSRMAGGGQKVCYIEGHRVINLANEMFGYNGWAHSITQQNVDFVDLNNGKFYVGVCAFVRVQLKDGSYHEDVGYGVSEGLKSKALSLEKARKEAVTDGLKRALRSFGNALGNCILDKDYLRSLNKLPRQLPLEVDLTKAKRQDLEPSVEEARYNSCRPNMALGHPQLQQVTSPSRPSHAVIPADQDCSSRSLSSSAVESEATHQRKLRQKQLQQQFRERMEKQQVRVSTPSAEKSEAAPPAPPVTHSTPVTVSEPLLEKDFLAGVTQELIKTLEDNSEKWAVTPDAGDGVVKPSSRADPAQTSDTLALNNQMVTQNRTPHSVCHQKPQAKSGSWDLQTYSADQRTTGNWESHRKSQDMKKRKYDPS

[14] = target: T5, Apoptotic protease-activating factor 1; format: functional
[15] = target: Cyclin-dependent kinase 19 (Homo sapiens, UniProt Q9BWU1); assay: Navigating the Kinome. Panel member name: CDC2L6; format: functional
Chain of Cyclin-dependent kinase 19 (Q9BWU1 whole entry): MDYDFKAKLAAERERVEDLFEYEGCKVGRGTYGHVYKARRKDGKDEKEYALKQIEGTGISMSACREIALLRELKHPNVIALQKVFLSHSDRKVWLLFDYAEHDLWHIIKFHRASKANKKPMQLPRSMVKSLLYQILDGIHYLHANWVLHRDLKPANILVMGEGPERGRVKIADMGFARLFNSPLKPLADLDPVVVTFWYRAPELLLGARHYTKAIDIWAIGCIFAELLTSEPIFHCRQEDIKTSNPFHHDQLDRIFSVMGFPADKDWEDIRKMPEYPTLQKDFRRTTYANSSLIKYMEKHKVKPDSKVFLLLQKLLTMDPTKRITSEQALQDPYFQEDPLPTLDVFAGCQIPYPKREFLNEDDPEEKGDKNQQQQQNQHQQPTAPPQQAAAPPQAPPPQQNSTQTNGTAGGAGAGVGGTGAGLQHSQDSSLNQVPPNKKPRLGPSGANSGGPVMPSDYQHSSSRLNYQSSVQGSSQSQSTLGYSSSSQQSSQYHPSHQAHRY

[16] = target: Cell division cycle 7-related protein kinase (Homo sapiens, UniProt O00311); format: functional;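 note: value obtained from a kinome-wide kinase panel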
Chain of Cell division cycle 7-related protein kinase (O00311 whole entry): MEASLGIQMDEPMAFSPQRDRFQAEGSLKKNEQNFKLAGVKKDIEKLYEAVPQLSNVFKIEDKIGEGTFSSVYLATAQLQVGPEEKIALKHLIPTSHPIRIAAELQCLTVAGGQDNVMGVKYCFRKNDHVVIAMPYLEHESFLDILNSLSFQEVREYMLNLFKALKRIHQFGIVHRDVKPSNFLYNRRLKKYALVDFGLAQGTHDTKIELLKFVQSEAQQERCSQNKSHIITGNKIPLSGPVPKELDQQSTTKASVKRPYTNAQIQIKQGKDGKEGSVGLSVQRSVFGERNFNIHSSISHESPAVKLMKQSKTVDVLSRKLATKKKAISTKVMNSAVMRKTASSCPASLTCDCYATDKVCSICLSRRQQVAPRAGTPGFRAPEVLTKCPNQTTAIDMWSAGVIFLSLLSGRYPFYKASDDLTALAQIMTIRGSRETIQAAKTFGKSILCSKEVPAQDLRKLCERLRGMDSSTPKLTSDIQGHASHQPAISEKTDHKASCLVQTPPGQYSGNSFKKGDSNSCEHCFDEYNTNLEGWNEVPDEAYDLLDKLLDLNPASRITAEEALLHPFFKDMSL

Chain of Glycogen synthase kinase-3 beta (P49841 whole entry): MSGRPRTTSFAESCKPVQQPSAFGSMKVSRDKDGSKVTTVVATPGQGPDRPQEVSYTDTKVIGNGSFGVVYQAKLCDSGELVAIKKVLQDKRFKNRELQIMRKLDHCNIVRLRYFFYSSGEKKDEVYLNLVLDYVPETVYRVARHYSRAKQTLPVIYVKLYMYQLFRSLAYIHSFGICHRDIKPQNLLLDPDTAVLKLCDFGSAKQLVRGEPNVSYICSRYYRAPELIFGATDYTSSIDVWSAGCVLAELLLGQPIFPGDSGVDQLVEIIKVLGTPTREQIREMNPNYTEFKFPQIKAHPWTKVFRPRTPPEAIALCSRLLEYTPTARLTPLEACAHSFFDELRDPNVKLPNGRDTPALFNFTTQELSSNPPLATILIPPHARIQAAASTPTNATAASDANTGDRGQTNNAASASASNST

Question: Which AC50 [1] does the source give for `COC(=O)c1ccc(CSc2ccc3nnc(-c4ccc(F)cc4)n3n2)o1` here?
Answer: 509 nM (active)

Question: What about the AC50 [2] of the same molecule?
Answer: 1.87 µM (active)

Question: Which results are given for `CCN(CC)CCOC(=O)c1ccc(N/C=C(/C#N)c2nc(-c3ccc(OC)c(OC)c3)cs2)cc1`?
Answer: IC50 [3]: 3.02 µM (active); IC50 [4]: > 20 µM (inactive); IC50 (Prothrombin): 28.7 µM (active); IC50 [5]: 3.76 µM (active); IC50 [6]: 23.2 µM (active); IC50 (SUMO-activating enzyme [7]): 7.12 µM (active); CC50 [8]: 92.3 µM (active); IC50 (SUMO-activating enzyme [9]): 11.7 µM (active); IC50 (Bcl-2-related protein A1): 3.44 µM (active); IC50 [10]: > 100 µM (inactive); IC50 [11]: 32.4 µM (active); IC50 [12]: 3.93 µM (active); AC50 [13]: 10.9 µM (active); IC50 [14]: 4.09 µM (active)

Question: For `CN(C)CCNC(=O)c1ccc(-c2ccnc(Nc3cccc(F)c3)n2)cc1`, which Ki [15] is on record?
Answer: 31.6 µM (active)

Question: And the Ki [16]?
Answer: 251 nM (active)
